From BindingDB's records for doi:10.1021/jm970110p (Universit&#233, 1998) come the findings set out here.

The target of this experiment is Reverse transcriptase/RNaseH (Human immunodeficiency virus 1, UniProt Q72547). Put plainly: Inhibitory concentration against HIV-1 reverse transcriptase.

The compound `CCc1c(Cc2ccccc2)[n]([Au])c(=O)[nH]c1=O` [6-Benzyl-5-ethyl-1-aurus-1H-pyrimidine-2,4-dione] had an EC50 of 210 nM.
As to `CC(C)c1c(Cc2ccccc2)[n]([Au])c(=O)[nH]c1=O` [6-Benzyl-5-isopropyl-1-aurus-1H-pyrimidine-2,4-dione], a half-maximal response (EC50) required 42 nM.

In general, EC50 refers to the midpoint of the concentration-response curve. High values mean a need for much substance, low ones an effect from little substance.
